Results reported in US20250109126A1, “DIHYDRO-OXAZOL DERIVATIVE COMPOUNDS” (AC IMMUNE SA, priority 2021, published 2025).
Like-named read-outs stand apart in the source and are kept apart here.

System: NLRP3 inflammasome pathway
Test: NLRP3 inflammasome pathway activation assay, IL-1β release (HTRF) in human monocyte-like cells stimulated with MSU or Nigericin
Format: cell-based
Description: The following assays were used to determine the inhibitory activity of test compounds on the NLRP3 inflammasome pathway using common stimuli Nigericin (Invivogen) or monosodium urate crystals (MSU) (Invivogen).
Human monocyte-like cells were cultured in RPMI-1640 Glutamax medium supplemented with 10% heat inactivated FCS and 50 U/ml penicillin-streptomycin (Life Technologies).
Human monocyte-like cells were seeded at 75000 per well in a 96-well plate and were differentiated overnight into macrophages with 10 ng/ml PMA (Phorbol Myristate Acetate). The following day, medium containing 10 ng/ml LPS (Lipopolysaccharide) were added. After 3 hours of LPS priming, concentrations of test compound in the range from 100 μM to 6 nM were added 30 min prior to NLRP3 inflammasome pathway stimulation with Nigericin 3.75 μM or MSU 200 μg/ml for 3 h.
For IL-1β quantification, supernatants were analyzed using HTRF kit according to the manufacturer's instructions (Cisbio 62HIL1BPEH). Briefly, in a 384-well ProxiPlate™ microplate, 8 μl of sample was mixed, with 4 μl of Anti-IL1β Cryptate antibody (40×) and Anti-IL1β XL antibody (40×). Then, incubated overnight at RT. Reading was done using an EnVision Reader (PerkinElmer).
IC50 (concentration corresponding to 50% inhibition) were determined using GraphPad Prism 8.

[1] = Homo sapiens, 3 h, IL-1β release, PMA-differentiated, LPS-primed cells, MSU 200 μg/ml for 3 h, read-out: IC50 Human monocyte-like cells MSU
[2] = Homo sapiens, 3 h, read-out: IC50 Human monocyte-like cells Nigericin (μM)
[3] = IL-1β release, PMA-differentiated, LPS-primed cells, MSU 200 μg/ml for 3 h, read-out: IC50 Human monocyte-like cells MSU

Question: With `CCOC(=O)C1(c2ccon2)CN=C(Nc2c3c(c(C)c4c2CCC4)CCC3)O1` (racemic) [Example 7, ethyl 5-(isoxazol-3-yl)-2-((8-methyl-1,2,3,5,6,7-hexahydro-s-indacen-4-yl)amino)-4,5-dihydrooxazole-5-carboxylate] as the compound, how does the IC50 [1] read?
Answer: < 1 µM

Question: Which IC50 (Homo sapiens, 3 h, read-out: IC50 Human monocyte-like cells MSU (μM)) does the source give for `O=C(O)C1(c2cnoc2)CN=C(Nc2c3c(c(-c4ccccc4)c4c2CCC4)CCC3)O1` (stereo not shown) [Example 28, lithium 5-(isoxazol-4-yl)-2-((8-phenyl-1,2,3,5,6,7-hexahydro-s-indacen-4-yl)amino)-4,5-dihydrooxazole-5-carboxylate] here?
Answer: 10 to 30 µM

Question: What about the IC50 [2] of the same compound?
Answer: 10 to 30 µM

Question: With `CCOC(=O)C1(c2ccon2)CN=C(Nc2c(-c3ccnc(OC)c3)cc(F)c3c2CCC3)O1` (racemic) [Example 19, ethyl 2-((7-fluoro-5-(2-methoxypyridin-4-yl)-2,3-dihydro-1H-inden-4-yl)amino)-5-(isoxazol-3-yl)-4,5-dihydrooxazole-5-carboxylate] as the compound, how does the IC50 [1] read?
Answer: < 1 µM

Question: Which IC50 [1] does the source give for `CCOC(=O)C1(c2ccon2)CN=C(Nc2c(-c3ccnc(OC)c3)cc(F)cc2C(C)C)O1` (racemic) [Example 1, ethyl 2-{[4-fluoro-2-(2-methoxypyridin-4-yl)-6-(propan-2-yl)phenyl]amino}-5-(1,2-oxazol-3-yl)-4,5-dihydro-1,3-oxazole-5-carboxylate] here?
Answer: < 1 µM

Question: How did the IC50 [1] turn out when `COc1cc(-c2cc(F)cc(C(C)C)c2NC2=NCC(C(=O)O)(c3ccon3)O2)ccn1` (stereo not shown) [Example 10, 2-{[4-fluoro-2-(2-methoxypyridin-4-yl)-6-(propan-2-yl)phenyl]amino}-5-(1,2-oxazol-3-yl)-4,5-dihydro-1,3-oxazole-5-carboxylic acid] was run?
Answer: < 1 µM

Question: `COc1cc(-c2c(C)cc3c(c2NC2=NCC(C(=O)O)(c4ccon4)O2)CCC3)ccn1` (stereo not shown) [Example 27, 5-(isoxazol-3-yl)-2-((5-(2-methoxypyridin-4-yl)-6-methyl-2,3-dihydro-1H-inden-4-yl)amino)-4,5-dihydrooxazole-5-carboxylic acid] was tested. Which IC50 [1] did it give?
Answer: < 1 µM

Question: And the IC50 [2]?
Answer: 1 to 10 µM

Question: Which IC50 [1] does the source give for `COc1cc(-c2cc(F)cc(C(C)C)c2NC2=NCC(C(=O)O)(c3ccon3)O2)ccn1` (single isomer, unassigned) [Example 11, 2-{[4-fluoro-2-(2-methoxypyridin-4-yl)-6-(propan-2-yl)phenyl]amino}-5-(1,2-oxazol-3-yl)-4,5-dihydro-1,3-oxazole-5-carboxylic acid] here?
Answer: < 1 µM

Question: And the IC50 [2]?
Answer: 1 to 10 µM

Question: `Cc1c2c(c(NC3=NCC(C(=O)O)(c4ccon4)O3)c3c1CCC3)CCC2` (single isomer, unassigned) [Example 15, 2-[(8-methyl-1,2,3,5,6,7-hexahydro-s-indacen-4-yl)amino]-5-(1,2-oxazol-3-yl)-4,5-dihydro-1,3-oxazole-5-carboxylic acid] was tested. Which IC50 [1] did it give?
Answer: 1 to 10 µM

Question: `COc1cc(-c2ccc3c(c2NC2=NCC(C(=O)O)(c4ccon4)O2)CCC3)ccn1` (stereo not shown) [Example 13, 2-{[5-(2-methoxypyridin-4-yl)-2,3-dihydro-1H-inden-4-yl]amino}-5-(1,2-oxazol-3-yl)-4,5-dihydro-1,3-oxazole-5-carboxylic acid] was tested. Which IC50 [1] did it give?
Answer: < 1 µM

Question: What about the IC50 [2] of the same compound?
Answer: 10 to 30 µM

Question: With `COc1cc(-c2ccc3c(c2NC2=NCC(C(=O)O)(c4ccon4)O2)CCO3)ccn1` (stereo not shown) [Example 24, 5-(isoxazol-3-yl)-2-((5-(2-methoxypyridin-4-yl)-2,3-dihydrobenzofuran-4-yl)amino)-4,5-dihydrooxazole-5-carboxylic acid] as the compound, how does the IC50 [1] read?
Answer: 1 to 10 µM

Question: Which IC50 [1] does the source give for `COc1cc(-c2ccc3c(c2NC2=NCC(C(=O)O)(c4ccon4)O2)CCC3)ccn1` (racemic) [Example 12, 2-{[5-(2-methoxypyridin-4-yl)-2,3-dihydro-1H-inden-4-yl]amino}-5-(1,2-oxazol-3-yl)-4,5-dihydro-1,3-oxazole-5-carboxylic acid] here?
Answer: 1 to 10 µM

Question: How did the IC50 [1] turn out when `CCOC(=O)C1(c2ccon2)CN=C(Nc2c(C(C)C)cc(F)cc2C(C)C)O1` (racemic) [Example 23, ethyl 2-((4-fluoro-2,6-diisopropylphenyl)amino)-5-(isoxazol-3-yl)-4,5-dihydrooxazole-5-carboxylate] was run?
Answer: 1 to 10 µM

Question: `Cc1c2c(c(NC3=NCC(C(=O)O)(c4ccon4)O3)c3c1CCC3)CCC2` (stereo not shown) [Example 14, 2-[(8-methyl-1,2,3,5,6,7-hexahydro-s-indacen-4-yl)amino]-5-(1,2-oxazol-3-yl)-4,5-dihydro-1,3-oxazole-5-carboxylic acid] was tested. Which IC50 [1] did it give?
Answer: 1 to 10 µM

Question: `CC(C)c1cc(F)cc(-c2ccncc2)c1NC1=NCC(C(=O)O)(c2ccon2)O1` (stereo not shown) [Example 25, 2-((4-fluoro-2-isopropyl-6-(pyridin-4-yl)phenyl)amino)-5-(isoxazol-3-yl)-4,5-dihydrooxazole-5-carboxylic acid] was tested. Which IC50 [1] did it give?
Answer: 1 to 10 µM

Question: Which IC50 [1] does the source give for `CCOC(=O)C1(c2ccon2)CN=C(Nc2c3c(c(C(F)(F)F)c4c2CCC4)CCC3)O1` (racemic) [Example 21, ethyl 5-(isoxazol-3-yl)-2-((8-(trifluoromethyl)-1,2,3,5,6,7-hexahydro-s-indacen-4-yl)amino)-4,5-dihydrooxazole-5-carboxylate] here?
Answer: 1 to 10 µM

Question: What about the IC50 [2] of the same compound?
Answer: < 1 µM

Question: For `CCOC(=O)C1(c2ccon2)CN=C(Nc2c(-c3ccnc(OC)c3)ccc3c2CCC3)O1` (racemic) [Example 4, ethyl 2-{[5-(2-methoxypyridin-4-yl)-2,3-dihydro-1H-inden-4-yl]amino}-5-(1,2-oxazol-3-yl)-4,5-dihydro-1,3-oxazole-5-carboxylate], which IC50 [1] is on record?
Answer: < 1 µM

Question: With `CCOC(=O)C1(c2ccon2)CN=C(Nc2c3c(cc(C)c2-c2ccnc(OC)c2)CCC3)O1` (racemic) [Example 20, ethyl 5-(isoxazol-3-yl)-2-((5-(2-methoxypyridin-4-yl)-6-methyl-2,3-dihydro-1H-inden-4-yl)amino)-4,5-dihydrooxazole-5-carboxylate] as the compound, how does the IC50 [1] read?
Answer: < 1 µM

Question: Which IC50 [3] does the source give for `CCOC(=O)C1(c2ccon2)CN=C(Nc2c(-c3ccnc(OC)c3)cc(F)cc2C(C)C)O1` (single isomer, unassigned) [Example 3, ethyl 2-{[4-fluoro-2-(2-methoxypyridin-4-yl)-6-(propan-2-yl)phenyl]amino}-5-(1,2-oxazol-3-yl)-4,5-dihydro-1,3-oxazole-5-carboxylate] here?
Answer: 1 to 10 µM

Question: `CCOC(=O)C1(c2ccon2)CN=C(Nc2c3c(c(-c4ccccc4)c4c2CCC4)CCC3)O1` (single isomer, unassigned) [Example 9, ethyl 5-(isoxazol-3-yl)-2-((8-phenyl-1,2,3,5,6,7-hexahydro-s-indacen-4-yl)amino)-4,5-dihydrooxazole-5-carboxylate] was tested. Which IC50 [2] did it give?
Answer: 1 to 10 µM

Question: And the IC50 [3]?
Answer: < 1 µM

Question: For `CCOC(=O)C1(c2ccon2)CN=C(Nc2c3c(c(-c4ccccc4)c4c2CCC4)CCC3)O1` (single isomer, unassigned) [Example 16, ethyl 5-(isoxazol-3-yl)-2-((8-phenyl-1,2,3,5,6,7-hexahydro-s-indacen-4-yl)amino)-4,5-dihydrooxazole-5-carboxylate], which IC50 [3] is on record?
Answer: 10 to 30 µM

Question: What about the IC50 (read-out: IC50 Human monocyte-like cells Nigericin, IL-1β release, PMA-differentiated, LPS-primed cells, Nigericin 3.75 μM for 3 h) of the same compound?
Answer: 1 to 10 µM

Question: `COc1cc(-c2cc(F)c3c(c2NC2=NCC(C(=O)O)(c4ccon4)O2)CCC3)ccn1` (stereo not shown) [Example 26, 2-((7-fluoro-5-(2-methoxypyridin-4-yl)-2,3-dihydro-1H-inden-4-yl)amino)-5-(isoxazol-3-yl)-4,5-dihydrooxazole-5-carboxylic acid] was tested. Which IC50 [1] did it give?
Answer: 1 to 10 µM

Question: Which IC50 [1] does the source give for `CCOC(=O)C1(c2ccon2)CN=C(Nc2c(-c3ccnc(OC)c3)cc(F)cc2C(C)C)O1` (single isomer, unassigned) [Example 2, ethyl 2-{[4-fluoro-2-(2-methoxypyridin-4-yl)-6-(propan-2-yl)phenyl]amino}-5-(1,2-oxazol-3-yl)-4,5-dihydro-1,3-oxazole-5-carboxylate] here?
Answer: < 1 µM

Question: With `CCOC(=O)C1(c2ccon2)CN=C(Nc2c(-c3ccncc3)cc(F)cc2C(C)C)O1` (racemic) [Example 18, ethyl 2-((4-fluoro-2-isopropyl-6-(pyridin-4-yl)phenyl)amino)-5-(isoxazol-3-yl)-4,5-dihydrooxazole-5-carboxylate] as the compound, how does the IC50 [1] read?
Answer: < 1 µM

Question: For `CCOC(=O)C1(c2ccon2)CN=C(Nc2c(-c3ccnc(OC)c3)ccc3c2CCO3)O1` (racemic) [Example 17, ethyl 5-(isoxazol-3-yl)-2-((5-(2-methoxypyridin-4-yl)-2,3-dihydrobenzofuran-4-yl)amino)-4,5-dihydrooxazole-5-carboxylate], which IC50 [1] is on record?
Answer: < 1 µM
